Experimental findings from patent publication US20070161643A1, “Pyridin-2-one compounds useful as inhibitors of thrombin” (priority 2004, published 2007) are described below.

The test has as its target T1, Human α-thrombin (Homo sapiens, UniProt P00734).
T1 construct: 12 μL of α-thrombin solution (Human α-thrombin, Sigma Chemical Co. or Hematologic Technologies); purchased Sigma Chemical Co. or Hematologic Technologies
Description: Test B: Determination of thrombin inhibition with a chromogenic, robotic assay. Type of test: biochemical. Here is the method: The thrombin inhibitor potency is measured with a chromogenic substrate method, in a Plato 3300 robotic microplate processor (Rosys AG, CH-8634 Hombrechtikon, Switzerland), using 96-well, half volume microtitre plates (Costar, Cambridge, Mass., USA; Cat No 3690). Stock solutions of test substance in DMSO (72 μL), 0.1-1 mmol/L, are diluted serially 1:3 (24+48 μL) with DMSO to obtain ten different concentrations, which are analysed as samples in the assay. 2 μL of test sample is diluted with 124 μL assay buffer, 12 μL of chromogenic substrate solution (S-2366, Chromogenix, Mölndal, Sweden) in assay buffer and finally 12 μL of α-thrombin solution (Human α-thrombin, Sigma Chemical Co. or Hematologic Technologies) in assay buffer, are added, and the samples mixed. The final assay concentrations are: test substance 0.00068-133 μmol/L, S-2366 0.30 mmol/L, α-thrombin 0.020 NIHU/mL. The linear absorbance increment during 40 minutes incubation at 37° C. is used for calculation of percentage inhibition for the test samples, as compared to blanks without inhibitor.

Broadly, the IC50 is the concentration that gives 50% inhibition. High values mean a need for much substance, low ones inhibition by little substance.

SMILES strings stand for the structures.

In the case of `Cc1ccc(C)c(CCNn2ccc(C)c(CC(=O)NCc3ccc(C(=N)N)cc3)c2=O)c1` [2(xi), N-(4-Carbamimidoylbenzyl)-2-{1-[2-(2,5-dimethylphenyl)ethylamino]-4-methyl-2-oxo-1,2-dihydropyridin-3-yl}acetamide], the half-inhibitory concentration (IC50) was determined as 92.2 nM.
